From US4060530A, “Clavulanic acid amides” (Beecham Group Limited, priority 1975, dated 1977)
Where a name gives a salt, the structure may show the parent alone.

Assays:
Escherichia coli B 11 = experiment: MIC / synergism, microtitre method (Example 42); type: cell-based; conditions: B11, agent alone, inoculum final dilution 0.5 ×10^-2, 37° C overnight, read-out: Minimum Inhibitory Concentration
Pseudomonas aeruginosa A = experiment: MIC, microtitre method (Example 30); conditions: read-out: Minimum Inhibitory Concentration
Method: (§1) The cultures were incubated overnight and the points of bacterial growth recorded next morning by observing the turbidity of the culture.

Bacillus subtilis A = experiment: MIC, method of Example 30 with 1/100 dilution of overnight broth (Example 46); conditions: Bacillus subtilis
Method: as §1

Providentia stuartii = experiment: MIC, microtitre method (Example 30); conditions: read-out: Minimum Inhibitory Concentration
Method: as §1

[1] = system: Staphylococcus aureus (Oxford H); experiment: MIC, microtitre method (Example 30); conditions: read-out: Minimum Inhibitory Concentration
Method: as §1

Enterobacter cloacae [2] = experiment: MIC / synergism, microtitre method (Example 42); type: cell-based; conditions: agent alone, inoculum final dilution 0.5 ×10^-2, 37° C overnight, read-out: Minimum Inhibitory Concentration
Salmonella typhimurium = experiment: MIC, microtitre method (Example 30); conditions: Salmonella enterica, read-out: Minimum Inhibitory Concentration
Method: as §1

[3] = system: Staphylococcus aureus (Russell); experiment: MIC, microtitre method (Example 30); conditions: read-out: Minimum Inhibitory Concentration
Method: as §1

[4] = system: Escherichia coli NCTC 10481; experiment: MIC / synergism, microtitre method (Example 42); type: cell-based; conditions: NCTC10481, agent alone, inoculum final dilution 0.5 ×10^-2, 37° C overnight, read-out: Minimum Inhibitory Concentration
Serratia marcescens [5] = experiment: MIC, microtitre method (Example 30); conditions: read-out: Minimum Inhibitory Concentration
Method: as §1

Shigella sonnei = experiment: MIC, microtitre method (Example 30); conditions: read-out: Minimum Inhibitory Concentration
Method: as §1

Escherchia coli 10418 = experiment: MIC, method of Example 30 with 1/100 dilution of overnight broth (Example 46)
Method: as §1

Klebsiella aerogenes = experiment: MIC, microtitre method (Example 30); conditions: read-out: Minimum Inhibitory Concentration
Method: as §1

Streptococcus faecalis = experiment: MIC, microtitre method (Example 30); conditions: Enterococcus faecalis, read-out: Minimum Inhibitory Concentration
Method: as §1

Acinetobacter anitratus = experiment: MIC, microtitre method (Example 30); conditions: Acinetobacter calcoaceticus, read-out: Minimum Inhibitory Concentration
Method: as §1

Klebsiella sp 62 = experiment: MIC / synergism, microtitre method (Example 42); type: cell-based; conditions: agent alone, inoculum final dilution 0.5 ×10^-2, 37° C overnight, read-out: Minimum Inhibitory Concentration
[6] = system: Enterobacter aerogenes T 624; experiment: MIC, microtitre method (Example 30); conditions: Klebsiella aerogenes, T624, read-out: Minimum Inhibitory Concentration
Method: as §1

Staph. aureus Oxford = experiment: MIC, method of Example 30 with 1/100 dilution of overnight broth (Example 46); conditions: Staphylococcus aureus
Method: as §1

Bacillus subtilis = experiment: MIC, microtitre method (Example 30); conditions: read-out: Minimum Inhibitory Concentration
Method: as §1

Enterobacter cloacae [7] = experiment: MIC, microtitre method (Example 30); conditions: read-out: Minimum Inhibitory Concentration
Method: as §1

Proteus vulgaris W090 = experiment: MIC, microtitre method (Example 30); conditions: W090, read-out: Minimum Inhibitory Concentration
Method: as §1

[8] = Blood and tissue levels of clavulanic acid in female mice; type: in vivo
Proteus mirabilis 899 = experiment: microbe, parasite or virus in culture; type: cell-based; conditions: Proteus mirabilis, 899, read-out: Minimum Inhibitory Concentration
[9] = system: Escherichia coli NCTC 10418; experiment: MIC, microtitre method (Example 30); conditions: NCTC10418, read-out: Minimum Inhibitory Concentration
Method: as §1

Staph. aureus Russell = experiment: MIC, method of Example 30 with 1/100 dilution of overnight broth (Example 46); conditions: Staphylococcus aureus
Method: as §1

Staphylococcus aureus = experiment: MIC / synergism, microtitre method (Example 42); type: cell-based; conditions: Staphylococcus aureus; agent alone (Tables 5, 6); inoculum final dilution 0.5 ×10^-2, 37° C overnight; read-out: Minimum Inhibitory Concentration
Proteus mirabilis C977 = experiment: MIC, microtitre method (Example 30); conditions: C977, read-out: Minimum Inhibitory Concentration
Method: as §1

Klebsiella oxytocum = experiment: MIC, microtitre method (Example 30); conditions: read-out: Minimum Inhibitory Concentration
Method: as §1

Serratia marcescens [10] = experiment: MIC / synergism, microtitre method (Example 42); type: cell-based; conditions: agent alone, inoculum final dilution 0.5 ×10^-2, 37° C overnight, read-out: Minimum Inhibitory Concentration
[11] = system: Staphylococcus aureus (Russell); experiment: MIC / synergism, microtitre method (Example 42); type: cell-based; conditions: Staphylococcus aureus; agent alone (Tables 5, 6); inoculum final dilution 0.5 ×10^-2, 37° C overnight; read-out: Minimum Inhibitory Concentration
[12] = system: Streptococcus pyogenes CN 10; experiment: MIC, microtitre method (Example 30); conditions: CN10, read-out: Minimum Inhibitory Concentration
Method: as §1

Structure (SMILES): O=C(O)[C@H]1/C(=C/CO)O[C@@H]2CC(=O)N21 [clavulanic acid sodium salt, 3-(β-hydroxyethylidine)-7-oxo-4-oxa-1-azabicyclo [3,2,0]heptane-2-carboxylic acid sodium salt]
- MIC (Escherichia coli B 11): 62 µg/mL
- MIC (Pseudomonas aeruginosa A): 500 µg/mL
- MIC (Bacillus subtilis A): 62 µg/mL
- MIC (Providentia stuartii): 125 µg/mL
- MIC [1]: 7.5 µg/mL
- MIC (Enterobacter cloacae [2]): 62 µg/mL
- MIC (Salmonella typhimurium): 31 µg/mL
- MIC [3]: 7.5 µg/mL
- MIC [4]: 31 µg/mL
- MIC (Serratia marcescens [5]): 125 µg/mL
- MIC (Shigella sonnei): 62 µg/mL
- MIC (Escherchia coli 10418): 125 µg/mL
- MIC (Klebsiella aerogenes): 31 to 62 µg/mL
- MIC (Streptococcus faecalis): > 500 µg/mL
- MIC (Acinetobacter anitratus): 125 µg/mL
- MIC (Klebsiella sp 62): 31 µg/mL
- MIC [6]: 31 µg/mL
- MIC (Staph. aureus Oxford): 15 µg/mL
- MIC (Bacillus subtilis): 62 µg/mL
- MIC (Enterobacter cloacae [7]): 62 µg/mL
- MIC (Proteus vulgaris W090): 31 µg/mL
- levels of clavulanic acid after oral administration ([8]; oral administration of 100 mg/kg): useful levels of clavulanic acid can be obtained
- blood and tissue levels of clavulanic acid ([8]; subcutaneous administration of 100 mg/kg): > 5 µg/mL
- MIC (Proteus mirabilis 899): > 500 µg/mL
- MIC [9]: 31 µg/mL
- MIC (Staph. aureus Russell): 15 µg/mL
- MIC (Staphylococcus aureus): 62 µg/mL
- MIC (Proteus mirabilis C977): 62 µg/mL
- MIC (Klebsiella oxytocum): 62 µg/mL
- MIC (Serratia marcescens [10]): 125 µg/mL
- MIC [11]: 15 µg/mL
- MIC [12]: 125 µg/mL
